In one series the test system is P388. In words: Cytotoxicity against mouse P388 cells measured after 48 hrs by MTT assay. The conditions noted are these: P388, 48 h. The class given is functional, cell-based. On the technique in general: Tetrazolium assays rely on reduction of a dye to a coloured formazan, in cell work by metabolically active cells.
A further series has as its system Porphyromonas gingivalis. Nature of the series: Antibacterial activity against Porphyromonas gingivalis ATCC 33277 by REMA. It is filed as functional.
Series [1] deals with Mycobacterium tuberculosis. In words: Antibacterial activity against Mycobacterium tuberculosis ATCC 27294 by REMA. It is filed as functional.
The next series deals with A549. In words: Antiproliferative activity against human A549 cells assessed as inhibition of cell growth at 100 uM by MTT assay relative to control. It is filed as functional.
The nature of series [2]: Inhibition of mitochondrial complex III (unknown origin). Further details: species or system Homo sapiens.
For a further series, the system named is Synechococcus elongatus. Nature of the series: Antibacterial activity against Synechococcus elongatus PCC 6301 by plate reader method. It is filed as functional, organism-based.
The subject of a further series is Pseudomonas aeruginosa. In words: Antibacterial activity against Pseudomonas aeruginosa. It is filed as functional.
The test system of series [3] is Escherichia coli. In words: Antibacterial activity against Escherichia coli ATCC 25922. The class given is functional.
A further series relates to Klebsiella pneumoniae. In words: Antibacterial activity against Klebsiella pneumoniae patient isolate. It is filed as functional.
Series [4] is described as follows: Toxicity in Myzus persicae assessed as mortality relative to control.
Series [5] can be described thus: Reversal of heartbeat inhibition in embryonic chicken cardiac cells. It is filed as functional, cell-based, Gallus gallus. Conditions: cardiac muscle cell.
Series [6] is described as follows: Inhibition of serotonin induced dermal vascular permeability in Sprague-Dawley rat blood vessels at 100 mg/kg, ip measured after 5 mins relative to control. Conditions: Blood vessel. It is filed as functional.
The nature of series [7]: Inhibition of histamine induced dermal vascular permeability in Sprague-Dawley rat blood vessels at 100 mg/kg, ip measured after 5 mins relative to control. It is filed as functional. The conditions noted are these: Blood vessel.
The nature of series [8]: Inhibition of bradykinin induced dermal vascular permeability in Sprague-Dawley rat blood vessels at 100 mg/kg, ip measured after 5 mins relative to control. The class given is functional. The conditions noted are these: Blood vessel.
Another series concerns SMMC-7721. Nature of the series: Antiproliferative activity against human […] cells measured after 24 hrs by MTT assay. The conditions noted are these: SMMC-7721, 24 h. The class given is functional, cell-based.
Series [9] in a line: Cytotoxicity against human L02 cells measured after 24 hrs by MTT assay. It is filed as toxicity, cell-based.
The next series has as its system HCT-116. Nature of the series: Antiproliferative activity against human HCT-116 cells measured after 48 hrs by MTT assay. It is filed as cell-based. The conditions noted are these: HCT-116, 48 h.
In the next series the test system is MCF7. Nature of the series: Antiproliferative activity against human MCF7 cells measured after 48 hrs by MTT assay. The conditions noted are these: MCF7, 48 h. It is filed as cell-based.
A further series deals with DU-145. Nature of the series: Antiproliferative activity against human DU-145 cells measured after 48 hrs by MTT assay. It is filed as cell-based. Conditions: DU-145, 48 h.
Series [10] in a line: Toxicity in Nilaparvata lugens assessed as mortality at 20 mg/L relative to control. Conditions: at 20 µg/mL.
The nature of series [11]: Toxicity in Aphis craccivora assessed as mortality at 20 mg/L relative to control. The conditions noted are these: at 20 µg/mL.
The test system of another series is Leishmania amazonensis. Nature of the series: Antileishmanial activity against Leishmania amazonensis incubated for 24 hrs. It is filed as functional, organism-based.
A short description of series [12]: Toxicity in Myzus persicae assessed as mortality at 0.80 mg/L relative to control. Conditions: at 0.8 µg/mL, dose 0.8 mg/L.
The test system of the next series is Aeromonas salmonicida. Nature of the series: Antimicrobial activity against Aeromonas salmonicida ATCC 14174. The class given is functional.
The next series has as its system Vibrio anguillarum. In words: Antibacterial activity against Vibrio anguillarum NCMB6. It is filed as functional.
The subject of the next series is Brevibacillus brevis. In words: Antibacterial activity against Bacillus brevis. The class given is functional.
A further series has as its system Streptomyces sp. In words: Antibacterial activity against Streptomyces sp. ATCC 23836. The class given is functional.
A further series deals with Botrytis cinerea. Nature of the series: […] activity against Botrytis cinerea. It is filed as functional.
Series [13] is described as follows: Inhibition of DNA in mouse L1210 cells. The class given is cell-based.
A short description of series [14]: Inhibition of RNA in mouse L1210 cells. It is filed as cell-based.
The nature of series [15]: Toxicity in mouse engrafted with mouse L1210 cells assessed as lethal dose measured per […]. The class given is cell-based.
The nature of series [16]: Toxicity in Spodoptera littoralis larvae. On the set-up: species or system Larva.
Series [17] addresses ATP-sensitive inward rectifier potassium channel 1 (Homo sapiens, UniProt P48048). Nature of the series: Inhibition of ROMK (unknown origin) by Thallium Efflux assay.
Series [18] relates to Escherichia coli. Nature of the series: Antibacterial activity against Escherichia coli. It is filed as functional.
A further series concerns Staphylococcus aureus. In words: Antibacterial activity against Staphylococcus aureus. It is filed as functional.
Series [19] in a line: Toxicity in Aphis craccivora assessed as mortality at 100 mg/ml relative to control. Further details: dose or concentration left out as unconfirmed.
Series [20] is described as follows: Toxicity in Nilaparvata lugens assessed as mortality at 100 mg/ml relative to control. Further details: dose or concentration left out as unconfirmed.
Series [21] in a line: Toxicity in Anopheles darlingi larvae measured after 48 hrs. On the set-up: species or system Larva.
The nature of series [22]: Toxicity in Aphis gossypii assessed as mortality at 4 mg/L relative to control. The conditions noted are these: at 4 µg/mL.
Series [23] in a line: Toxicity in Myzus persicae assessed as mortality at 20 mg/L relative to control. Conditions: at 20 µg/mL.

≈ marks a conversion by molar mass, not a printed value. A value given as a limit tells only on which side of the number the result lay.

Sequence of ATP-sensitive inward rectifier potassium channel 1 (P48048 whole entry): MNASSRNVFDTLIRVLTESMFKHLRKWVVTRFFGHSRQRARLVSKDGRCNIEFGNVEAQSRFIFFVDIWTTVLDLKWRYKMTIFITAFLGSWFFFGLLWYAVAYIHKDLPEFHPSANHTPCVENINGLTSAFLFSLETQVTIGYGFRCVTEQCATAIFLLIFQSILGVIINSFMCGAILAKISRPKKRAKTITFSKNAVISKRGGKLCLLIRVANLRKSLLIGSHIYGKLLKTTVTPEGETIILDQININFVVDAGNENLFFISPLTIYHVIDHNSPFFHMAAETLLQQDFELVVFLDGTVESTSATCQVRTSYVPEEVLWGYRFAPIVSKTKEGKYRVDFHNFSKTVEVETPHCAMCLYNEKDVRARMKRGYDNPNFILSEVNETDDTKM

For `COc1cc(C2C3=C(COC3=O)Nc3cc4c(cc32)OCO4)cc(OC)c1OC` (stereo unspecified), it took 4530 nM to reach half-maximal inhibition with P388 (IC50).
In the case of `COc1cc(C2C3=C(COC3=O)Nc3cc4c(cc32)OCO4)c([N+](=O)[O-])cc1OC` (stereo unspecified), the MIC50 (usually an inhibitory concentration at the 50% level, which refers to growth in some studies and to a panel of isolates in others) with Porphyromonas gingivalis came out at 25 µg/mL (≈ 60.6 µM); in [1] it was 250 µg/mL (≈ 606 µM).
Consider `CCOC(=O)[C@H](Cc1ccccc1)NC1=C(Cl)C(=O)O[C@@H]1O[C@@H]1C[C@H](C)CC[C@H]1C(C)C`, for which the inhibition (commonly how much of the control response was suppressed) at 100 µM with A549 was 91.8%.
As to `CCCCCC[C@H](O)CCC[C@H](O)[C@H]1CC[C@H]([C@H]2CC[C@H]([C@H](O)CCCCCCCCCCCCC3=C(N)[C@H](C)OC3=O)O2)O1`, in series [2], the half-maximal inhibitory concentration (IC50) (as a rule, the concentration at which inhibition is half-maximal) was determined as 40 nM.
Take `O=C1O[C@@H]([C@H](O)c2ccc(-c3ccccc3)cc2)C(Nc2ccc(Br)cc2)=C1Cl`: the midpoint of inhibition with Synechococcus elongatus, the IC50, lay at 1300 nM.
Turning to `COC1OC(=O)C(Br)=C1n1cnc2cc(C)c(C)cc21` (stereo unspecified), the MIC50 turned out to be 8 µg/mL (≈ 23.7 µM) against Pseudomonas aeruginosa, 2 µg/mL (≈ 5.93 µM) with Escherichia coli [3] and 16 µg/mL (≈ 47.5 µM) in the series with Klebsiella pneumoniae.
Take `N#CC1(c2cncc(Cl)c2)CC2CCC(C1)N2CC(F)F` (stereo unspecified): the Activity in series [4] is reported as more than 80%.
Consider `CCOC(=O)C1C(C)NC2=C(C(=O)OC2)C1c1ccccc1OC(F)F` (stereo unspecified), for which the EC50 (in general, the midpoint of the concentration-response curve) in series [5] worked out at 60 nM.
Turning to `CCN(CC)C1=C(Cl)C(=O)OC1OC` (stereo unspecified), the inhibition at 100 µM with A549 amounted to 80.5%.
In the case of `Cc1ccc(NC2=C(Cl)C(=O)O[C@H]2[C@H](O)c2ccc(-c3ccccc3)cc2)cc1`, the IC50 in the series with Synechococcus elongatus was 4400 nM.
For `CC[C@H](C)[C@H](NC1=C(Br)C(=O)O[C@@H]1O[C@@H]1C[C@H](C)CC[C@H]1C(C)C)C(=O)OC`, the inhibition at 100 µM in the series with A549 was 97.2%.
Turning to `O=C(N[C@H]1C[C@@H]1c1ccccc1)C1=C(Nc2ccc(Cl)cc2)COC1=O`, the inhibition in vivo (commonly the relative decrease from the control value, in per cent) at 100 mg/kg was found to be 94% in series [6], 92% in series [7] and 100% in series [8].
As to `COC1OC(=O)C(Cl)=C1N1CCN(CCCCCC[C@H]2CN([C@@H]3OC4O[C@]5(C)CC[C@H]6[C@H](C)CC[C@@H]([C@H]3C)[C@@]46OO5)CCS2(=O)=O)CC1` (stereo partly specified), the IC50 came to 30 nM in the series with SMMC-7721, 10 nM in the series with HCT-116, 10 nM in the series on MCF7 and 20 nM in the series with DU-145. Moreover, the midpoint of inhibition in series [9], the IC50 at 24 h, lay at 70000 nM.
`CN(Cc1ccc(Cl)nc1)C1=C(Br)C(=O)OC1OCCF` (stereo unspecified): the figures for the Activity in series [10] and in [11] were 92% and 100%, respectively.
The compound `COc1cc2c(c(OC)c1OC)C(c1ccc(C(F)(F)F)cc1)C1=C(COC1=O)N2` (stereo unspecified) came in with an IC50 in the series with Leishmania amazonensis of 6220 nM.
As to `NCCN(Cc1ccc(Cl)nc1)C1=CC(=O)OC1`, the Activity in series [12] was found to be 100%.
Consider `NC1=CC(=O)O/C1=C/C=O`, for which the MIC50 was 100 µg/mL (≈ 719 µM) against Aeromonas salmonicida; 100 µg/mL (≈ 719 µM) in the series on Vibrio anguillarum; 50 µg/mL (≈ 359 µM) in the series with Brevibacillus brevis; 100 µg/mL (≈ 719 µM) against Streptomyces sp.; 100 µg/mL (≈ 719 µM) in the series with Botrytis cinerea. The IC50 was determined as 0.4 µg/mL (≈ 2.88 µM) in series [13] and 0.6 µg/mL (≈ 4.31 µM) in series [14]. For the same compound, the LC50 in series [15] turned out to be 6.25 mg.
Regarding `CCCC[C@@]12[C@@H]3C[C@H]4[C@H]5[C@H](C)/C(=C6/OC(=O)C(C)=C6OC)O[C@]5(O3)[C@@H]1CCN42`, in [16], the LC50 worked out at 2 µg/mL (≈ 5.16 µM).
Consider `Cc1c([C@H](O)CN2CCC3(CC2)CCN(C2=C(F)C(=O)OC2)CC3)ccc2c1COC2=O`, for which, in series [17], the IC50 is 7 nM.
Consider `O=C1OC2C(=C1Cl)N2Cc1ccccc1` (stereo unspecified), for which the MIC50 in the series with Pseudomonas aeruginosa amounted to 16 µg/mL (≈ 72.2 µM); against Escherichia coli [18] it was 8 µg/mL (≈ 36.1 µM); against Staphylococcus aureus it was 4 µg/mL (≈ 18 µM).
In the case of `O=C1C=C(N(Cc2ccc(Cl)nc2)CC(F)F)CO1`, the Activity in [19] is given as 90%; in series [20], 100%; in series [12], 100%; in series [22], 98%. In addition, the LC50 in series [21] is 1.18 µg/mL (≈ 4.09 µM).
`O=C1C=C(N(CCF)Cc2cnc(Cl)c(Cl)c2)CO1`: the Activity in [23] came to 100%.
`COc1cc([C@@H]2c3cc4c(cc3[C@H](O)[C@H]3COC(=O)[C@H]23)OCO4)cc(OC)c1OC` [PODOFILOX] yielded an IC50 in the series on P388 of 10400 nM.

For the origin of these results see ChEMBL document CHEMBL5104114, “Synthesis and medicinal chemistry of tetronamides: Promising agrochemicals and antitumoral compounds” (Bioorg Med Chem, 2022).
